In patent US9120789B2, “1-(5-tert-butyl-2-phenyl-2H-pyrazol-3-yl)-3-[2-fluoro-4-(1-methyl-2-oxo-2,3-dihydro-1H-imidazo[4,5-b]pyridin-7-yloxy)-phenyl]-urea and related compounds and their use in therapy” (CANCER RESEARCH TECHNOLOGY LIMITED, priority 2010, dated 2015):

Tests used:
B-RAF = B-RAF (Homo sapiens, UniProt P15056); assay: Assay A - DELFIA kinase assay; type: biochemical; conditions: 100 μM ATP; mean of usually three assays; read-out: Assay A BRAF IC50
Description: Biological Methods—Assay A—DELFIA Kinase Assay
Compounds were assessed by a kinase assay performed according to the following protocol.
The following reagents were prepared:
DELFIA Kinase Buffer (DKB):
DKB1 (DKB with B-RAF and MEK Protein):
Combine 4950 μL of DKB and 50 μL of 2.5 mg/mL GST-MEK stock (to give 1 mg of MEK per 40 μL). Then add 22.5 μL of B-RAF to give ˜0.2 μL of B-RAF per 40 μL.
DKB2 (DKB with MEK Protein):
Combine 4950 μL of DKB and 50 μL of 2.5 mg/mL GST-MEK stock (to give […] of MEK per 40 μL). Use 500 μL of this for the blow out (BO) and the empty vector (EV) control.
100 mM stock, dilute to 500 μM to give 100 μM final concentration in assay.
Inhibitors (Test Compounds):
Phospho-MEK1/2 CST #9121S diluted 1:1000 in DELFIA assay buffer (AB). Pre-incubate antibody in the AB for 30 minutes at room temperature prior to use.
Anti-rabbit-Eur labelled secondary Perkin Elmer #AD0105 diluted 1:1000 in DELFIA assay buffer (AB). Pre-incubate antibody in the AB for 30 minutes at room temperature prior to use. (Primary and secondary antibodies were incubated together.)
DELFIA assay buffer Perkin Elmer #4002-0010.
DELFIA enhancement solution Perkin Elmer #4001-0010.
96 well glutathione-coated black plate Perbio #15340.
1. Preblock wells with 5% milk in TBS for 1 hour.
2. Wash wells 3× with 200 μL TBS.
3. Plate out 40 μL of DKB1 for all inhibitors (test compounds), DMSO control, and optionally other control compounds.
4. Plate out 40 μL of DKB2 for BO and EV wells.
5. Add inhibitors (test compounds) at 0.5 μL per well according to desired plate layout.
6. Add 0.5 μL DMSO to vehicle control wells.
7. Add 2 μL of B-RAF to BO and EV wells.
8. Pre-incubate with inhibitors (test compounds) for 10 minutes at room temperature with shaking.
9. Add 10 μL of 500 μM ATP stock, in DKB, to give 100 μM assay concentration.
10. Seal plates with TopSeal and incubate at room temperature with shaking for 45 minutes.
11. Wash plates 3× with 200 μL 0.1% Tween20/Water to terminate reaction.
12. Add 50 μL per well of antibody mix and incubate for 1 hour at room temperature with shaking.
13. Wash plates 3× with 200 μL 0.1% Tween20/Water.
14. Add 100 μL DELFIA enhancement solution per well, cover in foil, and incubate at room temperature for 30 minutes with shaking.
15. Read on Victor using Europium protocol.
Values for the blank (Empty Vector) are subtracted from all values. The DMSO controls are set as 100% activity and assay points (the response) are calculated as a percentage of the DMSO control. Data are plotted using Graphpad Prism software and a non-linear regression line is calculated using a variable slope sigmoidal dose-response equation: Y=Bottom+[Top−Bottom]/[1+10^((Log EC50−X)*HillSlope)] where X is the logarithm of concentration and Y is the response. The IC50 generated by this procedure is the concentration of the drug that produces a percentage control fluorescence value midway between the saturation, and zero-effect plateaus. Three independent assays are usually performed and the mean IC50 is reported. Biological Methods—Assay B—Cell Based Phosho-ERK Assay

[1] = system: SW620 human colorectal carcinoma cells (mutant RAS) xenograft; assay: Xenograft study, mutant RAS SW620; type: in vivo, mice; conditions: for Effect on tumour volume as compared to the control (in words) / Factor of tumour volume reduction as compared to the control: SW620 xenograft; for Ratio of: Tumour Volume (Treatment)/Tumour Volume (Control) (mutant RAS SW620 xenograft): athymic mice, gavage once daily for 24 doses; for Factor of tumour volume reduction as compared to the control: over the timescale of the study
Description: (§1) Biological Methods—Xenograft Studies
(§2) SW620 human colorectal carcinoma cells (mutant RAS, 7×10^7) or A375M human melanoma cells (mutant BRAF, 10^7) were inoculated sub-cutaneously in suspension (0.2 mL) into the right flank of female Crl:CD1-Foxn1nu athymic mice. Groups were assigned to treatment following stratified allocation of tumour volumes. Treatment with test compound began between days 11-14 post-cell administration. For gavage, a suspension (DMSO:water, 1:19, v/v at 10 m L/kg) was administered. Control animals received a similar dosage of vehicle (DMSO:water, 1:19, v/v). Treatment with test compound was continued once daily for 24 doses.

[2] = system: A375M human melanoma cells (mutant BRAF) xenograft; assay: Xenograft study, mutant BRAF A375; type: in vivo, mice; conditions: for Factor of tumour volume reduction as compared to the control: over the timescale of the study
Description: as §1, §2

Sequence of B-RAF (P15056 whole entry): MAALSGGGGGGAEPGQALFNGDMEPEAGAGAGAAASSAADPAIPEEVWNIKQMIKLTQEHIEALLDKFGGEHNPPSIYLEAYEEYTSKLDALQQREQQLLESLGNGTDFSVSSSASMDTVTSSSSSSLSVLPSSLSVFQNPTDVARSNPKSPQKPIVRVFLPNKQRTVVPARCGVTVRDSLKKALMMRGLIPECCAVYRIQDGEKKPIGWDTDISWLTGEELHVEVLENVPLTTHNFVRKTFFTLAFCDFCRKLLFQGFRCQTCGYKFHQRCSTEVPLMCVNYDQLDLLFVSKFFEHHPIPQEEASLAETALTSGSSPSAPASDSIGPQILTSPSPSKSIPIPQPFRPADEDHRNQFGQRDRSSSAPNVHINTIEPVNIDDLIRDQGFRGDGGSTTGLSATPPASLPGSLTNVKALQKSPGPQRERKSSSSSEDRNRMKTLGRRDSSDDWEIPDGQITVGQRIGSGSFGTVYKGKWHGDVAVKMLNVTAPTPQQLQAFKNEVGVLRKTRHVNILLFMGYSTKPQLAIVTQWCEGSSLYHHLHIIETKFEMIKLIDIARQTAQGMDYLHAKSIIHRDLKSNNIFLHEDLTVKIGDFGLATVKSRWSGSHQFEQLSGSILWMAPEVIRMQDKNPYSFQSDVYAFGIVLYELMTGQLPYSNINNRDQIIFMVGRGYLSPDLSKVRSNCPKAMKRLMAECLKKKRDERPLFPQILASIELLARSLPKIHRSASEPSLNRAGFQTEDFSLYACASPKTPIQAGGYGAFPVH

SMILES: Cn1c(=O)[nH]c2nccc(Oc3ccc(NC(=O)Nc4cc(C(C)(C)C)nn4-c4ccccc4)c4ccccc34)c21 [BB-01, 1-(3-Tert-butyl-1-phenyl-1H-pyrazol-5-yl)-3-(4-(1-methyl-2-oxo-2,3-dihydro-1H-imidazo[4,5-b]pyridin-7-yloxy)naphthalen-1-yl)urea]
- IC50 (B-RAF): 250 nM

SMILES: CC(C)(C)c1cc(NC(=O)Nc2ccc(Oc3ccnc4[nH]c(=O)[nH]c34)cc2)n(-c2ccccc2)n1 [XX-01, 1-(5-Tert-butyl-2-phenyl-2H-pyrazol-3-yl)-3-[4-(2-oxo-2,3-dihydro-1H-imidazo[4,5-b]pyridin-7-yloxy)-phenyl]-urea]
- IC50 (B-RAF): 94 nM
- Effect on tumour volume as compared to the control (in words) [1]: relatively little effect
- Ratio of: Tumour Volume (Treatment)/Tumour Volume (Control) (mutant RAS SW620 xenograft) [1]: >1

SMILES: Cn1c(=O)[nH]c2nccc(Oc3ccc(NC(=O)Nc4cc(C(C)(C)C)nn4-c4ccccc4)c(F)c3)c21 [AA-01, 1-(3-Tert-butyl-1-phenyl-1H-pyrazol-5-yl)-3-(2-fluoro-4-(1-N-methyl-2-oxo-2,3-dihydro-1H-imidazo[4,5-b]pyridin-7-yloxy)phenyl)urea]
- IC50 (B-RAF): 270 nM
- Effect on tumour volume as compared to the control (in words) [1]: statistically significant efficacy
- Factor of tumour volume reduction as compared to the control [1]: about 3
- Ratio of: Tumour Volume (Treatment)/Tumour Volume (Control) (mutant RAS SW620 xenograft) [1]: 0.34
- Factor of tumour volume reduction as compared to the control [2]: about 2.5

SMILES: Cc1ccc(-n2nc(C(C)(C)C)cc2NC(=O)Nc2ccc(Oc3ccnc4[nH]c(=O)n(C)c34)c3ccccc23)cc1 [BB-02, 1-(1-N-p-tolyl-3-tert-butyl-pyrazol-5-yl)-3-(4-(2-oxo-2,3-dihydro-1-N-methyl-1H-imidazo[4,5-b]pyridin-7-yl-oxy)naphthalen-1-yl)urea]
- IC50 (B-RAF): 2280 nM
- Effect on tumour volume as compared to the control (in words) [1]: statistically significant efficacy
- Factor of tumour volume reduction as compared to the control [1]: about 1.5
- Ratio of: Tumour Volume (Treatment)/Tumour Volume (Control) (mutant RAS SW620 xenograft) [1]: 0.66
- Factor of tumour volume reduction as compared to the control [2]: about 1.5

SMILES: Cn1c(=O)n(C)c2c(Oc3ccc(NC(=O)Nc4cc(C(C)(C)C)nn4-c4ccccc4)c(F)c3)ccnc21 [XX-03, 1-(3-Tert-butyl-1-phenyl-1H-pyrazol-5-yl)-3-(4-(1,3-dimethyl-2-oxo-2,3-dihydro-1H-imidazo[4,5-b]pyridin-7-yloxy)-2-fluorophenyl)urea]
- IC50 (B-RAF): 1090 nM
- Effect on tumour volume as compared to the control (in words) [1]: relatively little effect
- Ratio of: Tumour Volume (Treatment)/Tumour Volume (Control) (mutant RAS SW620 xenograft) [1]: 0.97

SMILES: Cc1ccc(-n2nc(C(C)(C)C)cc2NC(=O)Nc2ccc(Oc3ccnc4[nH]c(=O)n(C)c34)cc2)cc1 [XX-02, 1-(1-N-p-tolyl-3-tert-butyl-pyrazol-5-yl)-3-(4-(2-oxo-2,3-dihydro-1-N-methyl-1H-imidazo[4,5-b]pyridin-7-yl-oxy)phenyl)urea]
- IC50 (B-RAF): 200 nM
- Effect on tumour volume as compared to the control (in words) [1]: relatively little effect
- Ratio of: Tumour Volume (Treatment)/Tumour Volume (Control) (mutant RAS SW620 xenograft) [1]: 0.95
- Effect on tumour volume as compared to the control (in words) [2]: at least to some degree effective

SMILES: CC(C)(C)c1cc(NC(=O)Nc2ccc(Oc3ccnc4[nH]c(=O)[nH]c34)cc2)n(-c2ccc(F)cc2)n1 [XX-04, 1-[5-tert-Butyl-2-(4-fluoro-phenyl)-2H-pyrazol-3-yl]-3-[4-(2-oxo-2,3-dihydro-1H-imidazo[4,5-b]pyridin-7-yloxy)-phenyl]urea]
- IC50 (B-RAF): 240 nM
- Effect on tumour volume as compared to the control (in words) [1]: relatively little effect
- Ratio of: Tumour Volume (Treatment)/Tumour Volume (Control) (mutant RAS SW620 xenograft) [1]: 0.87
